Reference: patent publication US8871753B2, “Macrocyclic compounds and their use as kinase inhibitors” (Incyte Corporation, priority 2008, dated 2014)
Structures can show the parent of a compound that is named as a salt. Where two headings read alike, the source gives them in different places.

Key:
Format in all cases: biochemical
[1] = molecular target: T1, human JAK1 (a.a. 837-1142) (Homo sapiens, UniProt P23458); assay: In vitro JAK kinase assay (HTRF, phosphorylation of a biotinylated peptide), JAK1; settings: read-out: JAK1 IC50
T1 construct: human JAK1 (a.a. 837-1142); His tag (N); made in house; host or cells: insect cells (baculovirus)
T1 sequence (P23458 849-1154): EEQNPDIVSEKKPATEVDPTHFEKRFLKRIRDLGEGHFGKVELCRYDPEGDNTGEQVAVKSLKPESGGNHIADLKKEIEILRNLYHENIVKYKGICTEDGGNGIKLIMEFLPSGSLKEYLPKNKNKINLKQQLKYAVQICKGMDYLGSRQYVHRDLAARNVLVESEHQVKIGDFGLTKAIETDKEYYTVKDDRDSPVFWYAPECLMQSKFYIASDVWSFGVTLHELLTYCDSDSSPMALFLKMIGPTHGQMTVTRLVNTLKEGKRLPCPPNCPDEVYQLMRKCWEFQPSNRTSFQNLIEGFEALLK
Summary of the method: (§1)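 Kinase reactions ran at room temperature for 1 h with ATP matched per isoform (JAK1 90 μM, JAK2 30 μM, JAK3 3 μM). After an EDTA stop, the phosphorylated biotin-peptide was read by HTRF using Eu-Py20 and SA-APC after 40 min binding.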

[2] = molecular target: T2, human JAK2 (a.a. 828-1132) (Homo sapiens, UniProt O60674); assay: In vitro JAK kinase assay (HTRF, phosphorylation of a biotinylated peptide), JAK2
T2 construct: JAK2 (a.a. 828-1132); His tag (N); made in house; host or cells: insect cells (baculovirus)
T2 sequence (O60674 828-1132): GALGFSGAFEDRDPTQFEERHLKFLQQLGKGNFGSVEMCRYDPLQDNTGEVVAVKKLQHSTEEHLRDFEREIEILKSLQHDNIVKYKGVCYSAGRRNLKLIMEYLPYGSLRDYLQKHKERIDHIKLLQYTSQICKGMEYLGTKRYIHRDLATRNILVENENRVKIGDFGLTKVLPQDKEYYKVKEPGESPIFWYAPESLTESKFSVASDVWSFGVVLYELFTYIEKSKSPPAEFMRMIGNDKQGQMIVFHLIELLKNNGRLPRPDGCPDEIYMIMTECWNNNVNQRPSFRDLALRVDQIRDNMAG
Summary of the method: as §1

[3] = molecular target: T3, human JAK3 (a.a. 781-1124) (Homo sapiens, UniProt P52333); assay: In vitro JAK kinase assay (HTRF, phosphorylation of a biotinylated peptide), JAK3
T3 construct: JAK3 (a.a. 781-1124); His tag (N); made in house; host or cells: insect cells (baculovirus)
T3 sequence (P52333 781-1124): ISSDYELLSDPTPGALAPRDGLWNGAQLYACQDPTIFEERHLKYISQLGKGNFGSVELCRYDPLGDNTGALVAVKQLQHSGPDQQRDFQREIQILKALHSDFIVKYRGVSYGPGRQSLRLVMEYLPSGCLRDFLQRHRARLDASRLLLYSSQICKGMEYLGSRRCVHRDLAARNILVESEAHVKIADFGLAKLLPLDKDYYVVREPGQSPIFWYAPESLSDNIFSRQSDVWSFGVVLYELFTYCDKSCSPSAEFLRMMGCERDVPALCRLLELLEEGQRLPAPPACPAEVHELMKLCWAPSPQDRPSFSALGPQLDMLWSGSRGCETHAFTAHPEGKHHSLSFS
Summary of the method: as §1

TYK2 = TYK2 (Homo sapiens, UniProt P29597); assay: TYK2 kinase inhibition (Table A1)
Sequence of TYK2 (P29597 whole entry): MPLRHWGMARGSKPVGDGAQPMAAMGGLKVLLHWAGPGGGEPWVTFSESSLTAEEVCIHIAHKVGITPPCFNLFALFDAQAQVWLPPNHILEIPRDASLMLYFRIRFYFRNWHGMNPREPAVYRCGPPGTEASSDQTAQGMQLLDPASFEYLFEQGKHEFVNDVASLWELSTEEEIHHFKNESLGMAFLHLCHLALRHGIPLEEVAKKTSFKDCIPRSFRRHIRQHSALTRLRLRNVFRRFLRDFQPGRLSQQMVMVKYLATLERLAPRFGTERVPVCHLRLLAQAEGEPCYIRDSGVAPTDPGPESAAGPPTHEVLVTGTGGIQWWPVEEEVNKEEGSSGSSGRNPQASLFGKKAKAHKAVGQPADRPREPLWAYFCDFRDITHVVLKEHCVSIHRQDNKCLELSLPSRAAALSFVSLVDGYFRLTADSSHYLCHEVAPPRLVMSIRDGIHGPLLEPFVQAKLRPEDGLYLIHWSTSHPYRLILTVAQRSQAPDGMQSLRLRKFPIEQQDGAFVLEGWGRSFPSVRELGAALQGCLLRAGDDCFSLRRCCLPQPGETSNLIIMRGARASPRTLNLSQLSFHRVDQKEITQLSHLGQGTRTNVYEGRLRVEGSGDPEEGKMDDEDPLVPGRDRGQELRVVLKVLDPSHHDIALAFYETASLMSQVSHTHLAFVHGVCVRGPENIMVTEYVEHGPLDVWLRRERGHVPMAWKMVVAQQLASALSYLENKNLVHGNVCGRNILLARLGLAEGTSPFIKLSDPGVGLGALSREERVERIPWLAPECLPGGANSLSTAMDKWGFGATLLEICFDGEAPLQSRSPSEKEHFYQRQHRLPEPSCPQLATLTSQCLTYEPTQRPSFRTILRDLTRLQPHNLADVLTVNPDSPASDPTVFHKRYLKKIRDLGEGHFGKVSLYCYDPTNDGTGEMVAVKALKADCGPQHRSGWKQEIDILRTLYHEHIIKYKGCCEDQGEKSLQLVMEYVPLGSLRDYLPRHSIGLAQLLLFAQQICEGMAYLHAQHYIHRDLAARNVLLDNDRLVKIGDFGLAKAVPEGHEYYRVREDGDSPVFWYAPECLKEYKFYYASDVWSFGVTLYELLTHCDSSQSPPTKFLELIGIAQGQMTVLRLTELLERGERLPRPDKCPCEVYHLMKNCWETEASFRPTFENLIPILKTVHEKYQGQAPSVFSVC

[4] = molecular target: T4, Recombinant Human Anaplastic Lymphoma Kinase (Homo sapiens, UniProt Q9UM73); assay: ALK HTRF kinase assay
T4 construct: purchased Invitrogen, Carlsbad, Calif
T4 sequence (Q9UM73 19-1620): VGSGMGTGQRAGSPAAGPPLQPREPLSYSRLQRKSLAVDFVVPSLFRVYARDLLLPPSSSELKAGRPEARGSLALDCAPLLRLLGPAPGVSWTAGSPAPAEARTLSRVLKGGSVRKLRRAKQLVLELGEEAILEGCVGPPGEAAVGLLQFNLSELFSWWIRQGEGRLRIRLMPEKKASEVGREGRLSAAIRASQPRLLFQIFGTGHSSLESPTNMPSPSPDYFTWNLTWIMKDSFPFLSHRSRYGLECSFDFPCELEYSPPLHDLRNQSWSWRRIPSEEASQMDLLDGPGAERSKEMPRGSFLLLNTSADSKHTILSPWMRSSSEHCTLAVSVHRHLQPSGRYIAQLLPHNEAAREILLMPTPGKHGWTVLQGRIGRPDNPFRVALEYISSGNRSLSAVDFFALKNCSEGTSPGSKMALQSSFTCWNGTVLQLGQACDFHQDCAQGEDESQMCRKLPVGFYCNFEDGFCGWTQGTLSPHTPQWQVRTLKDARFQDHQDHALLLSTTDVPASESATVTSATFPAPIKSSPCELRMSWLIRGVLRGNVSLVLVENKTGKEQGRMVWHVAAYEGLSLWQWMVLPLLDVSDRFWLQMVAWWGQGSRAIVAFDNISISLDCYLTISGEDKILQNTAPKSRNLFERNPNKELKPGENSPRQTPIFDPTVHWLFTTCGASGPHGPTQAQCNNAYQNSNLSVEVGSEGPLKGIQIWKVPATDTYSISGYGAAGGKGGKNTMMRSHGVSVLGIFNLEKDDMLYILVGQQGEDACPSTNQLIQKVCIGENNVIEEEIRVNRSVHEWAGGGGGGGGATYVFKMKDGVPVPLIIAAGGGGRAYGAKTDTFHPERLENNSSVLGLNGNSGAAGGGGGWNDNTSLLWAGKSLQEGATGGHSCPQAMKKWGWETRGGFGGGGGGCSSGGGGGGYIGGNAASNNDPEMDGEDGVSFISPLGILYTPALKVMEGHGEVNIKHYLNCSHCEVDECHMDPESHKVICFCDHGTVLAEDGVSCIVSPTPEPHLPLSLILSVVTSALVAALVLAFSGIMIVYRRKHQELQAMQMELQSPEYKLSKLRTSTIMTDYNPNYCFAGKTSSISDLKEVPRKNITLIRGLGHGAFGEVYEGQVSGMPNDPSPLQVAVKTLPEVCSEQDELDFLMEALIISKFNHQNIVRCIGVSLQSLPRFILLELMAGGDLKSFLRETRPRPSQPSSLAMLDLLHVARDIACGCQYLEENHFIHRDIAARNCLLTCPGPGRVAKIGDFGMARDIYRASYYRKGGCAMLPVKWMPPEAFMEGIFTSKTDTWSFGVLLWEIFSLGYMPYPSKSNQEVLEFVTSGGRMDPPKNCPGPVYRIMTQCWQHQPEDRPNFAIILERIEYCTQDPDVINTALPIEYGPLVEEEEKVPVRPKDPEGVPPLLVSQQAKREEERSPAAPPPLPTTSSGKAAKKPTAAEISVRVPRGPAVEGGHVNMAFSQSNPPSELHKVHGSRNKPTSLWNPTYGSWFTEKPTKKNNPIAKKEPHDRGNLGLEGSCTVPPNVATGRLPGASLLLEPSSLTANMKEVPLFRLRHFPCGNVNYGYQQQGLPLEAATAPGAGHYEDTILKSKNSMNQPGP
Summary of the method: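 Recombinant human ALK phosphorylated a biotinylated synthetic peptide. Phosphotyrosine was detected by TR-FRET between a Eu-labelled anti-phosphotyrosine antibody and streptavidin-allophycocyanin. IC50 values came from fitting signal against inhibitor concentration to a four-parameter logistic equation with variable Hill slope.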

[5] = method AA1 (90 μM ATP) or AA2 (1000 μM ATP), not stated per value
[6] = method AA1 (30 μM ATP) or AA2 (1000 μM ATP), not stated per value
[7] = method AA1 (3 μM ATP) or AA2 (1000 μM ATP), not stated per value
[8] = compound at 500 nM or 1 mM, 90 μM ATP
[9] = Table B1, cells without percent sign
[10] = compound at a concentration of 500 nM or 1 mM (not specified), cells shown as percentage

| SMILES | IC50 [1, 5] [nM] | IC50 [2, 6] [nM] | IC50 [3, 7] [nM] | IC50 (TYK2) [nM] | ALK % of inhibition at a concentration of 500 nM or 1 mM [4, 8] [%] | IC50 ([1]; Table B1) [nM] | IC50 ([2]; Table B1) [nM] | IC50 ([3]; Table B1) [nM] | IC50 (TYK2; Table B1) [nM] | IC50 ([1]; Table D1) [nM] | IC50 ([2]; Table D1) [nM] | IC50 ([3]; Table D1) [nM] | IC50 (TYK2; Table D1) [nM] | IC50 ([4]; Table D1, 90 μM ATP) [nM] | other results |
| --- | --- | --- | --- | --- | --- | --- | --- | --- | --- | --- | --- | --- | --- | --- | --- |
| O=C(CC1CCN(C(=O)Nc2cccnc2)CC1)Nc1ccc2cc1CCc1cncc(c1)Nc1ncc(Cl)c(n1)N2 [Example A144, 4-(2-{[6-Chloro-2,4,8,18,22-pentaazatetracyclo[14.3.1.1(3,7).1(9,13)]docosa-1(20),3(22),4,6,9(21),10,12,16,18-nonaen-12-yl]amino}-2-oxoethyl)-N-pyridin-3-ylpiperidine-1-carboxamide bis(trifluoroacetate)] | 1.2 | 6.4 | > 100 | 11 | 35 | – | – | – | – | – | – | – | – | – | – |
| N#Cc1ccc(S(=O)(=O)N2CCC(CC(=O)Nc3ccc4cc3CCc3cncc(c3)Nc3ncc(Cl)c(n3)N4)CC2)cc1 [Example A199, N-[6-Chloro-2,4,8,18,22-pentaazatetracyclo[14.3.1.1(3,7).1(9,13)]docosa-1(20),3(22),4,6,9(21),10,12,16,18-nonaen-12-yl]-2-{1-[(4-cyanophenyl)sulfonyl]piperidin-4-yl}acetamide bis(trifluoroacetate)] | 32 | 199 | > 200 | > 200 | 41 | – | – | – | – | – | – | – | – | – | – |
| Cc1cc(C(=O)N2CCC(CC(=O)Nc3ccc4cc3CCc3cncc(c3)Nc3ncc(Cl)c(n3)N4)CC2)n[nH]1 [Example A163, N-[6-Chloro-2,4,8,18,22-pentaazatetracyclo[14.3.1.1(3,7).1(9,13)]docosa-1(20),3(22),4,6,9(21),10,12,16,18-nonaen-12-yl]-2-{1-[(5-methyl-1H-pyrazol-3-yl)carbonyl]piperidin-4-yl}acetamide bis(trifluoroacetate)] | 0.5 | 36 | > 100 | 3 | 29 | – | – | – | – | – | – | – | – | – | – |
| Cn1cnc(S(=O)(=O)N2CCC(CC(=O)Nc3ccc4cc3CCc3cncc(c3)Nc3ncc(Cl)c(n3)N4)CC2)c1 [Example A229, N-[6-Chloro-2,4,8,18,22-pentaazatetracyclo[14.3.1.1(3,7).1(9,13)]docosa-1(20),3(22),4,6,9(21),10,12,16,18-nonaen-12-yl]-2-{1-[(1-methyl-1H-imidazol-4-yl)sulfonyl]piperidin-4-yl}acetamide bis(trifluoroacetate)] | 8 | 75 | > 400 | 120 | 55 | – | – | – | – | – | – | – | – | – | – |
| Cc1cc(C(=O)N2CCC(CCC(=O)Nc3ccc4cc3CCc3cccc(c3)Nc3ncc(Cl)c(n3)N4)CC2)no1 [Example A124, N-[6-Chloro-2,4,8,22-tetraazatetracyclo[14.3.1.1(3,7).1(9,13)]docosa-1(20),3(22),4,6,9(21),10,12,16,18-nonaen-12-yl]-3-{1-[(5-methylisoxazol-3-yl)carbonyl]piperidin-4-yl}propanamide trifluoroacetate] | 0.6 | 2.5 | 39 | 5.4 | 34 | – | – | – | – | – | – | – | – | – | – |

Continued, in another order:

| IC50 [1, 5] [nM] | IC50 [2, 6] [nM] | IC50 [3, 7] [nM] | IC50 (TYK2) [nM] | ALK % of inhibition at a concentration of 500 nM or 1 mM [4, 8] [%] | IC50 ([1]; Table B1) [nM] | IC50 ([2]; Table B1) [nM] | IC50 ([3]; Table B1) [nM] | IC50 (TYK2; Table B1) [nM] | IC50 ([1]; Table D1) [nM] | IC50 ([2]; Table D1) [nM] | IC50 ([3]; Table D1) [nM] | IC50 (TYK2; Table D1) [nM] | IC50 ([4]; Table D1, 90 μM ATP) [nM] | SMILES | other results |
| --- | --- | --- | --- | --- | --- | --- | --- | --- | --- | --- | --- | --- | --- | --- | --- |
| – | – | – | – | – | 2.1 | 2.6 | 44 | 9.7 | – | – | – | – | – | O=C(Nc1ccc2cc1CCc1cccc(c1)Nc1ncc(Cl)c(n1)N2)c1ccco1 [Example B33, N-[6-Chloro-2,4,8,22-tetraazatetracyclo[14.3.1.1(3,7).1(9,13)]docosa-1(20), 3(22),4,6,9(21),10,12,16,18-nonaen-12-yl]-2-furamide trifluoroacetate] | IC50 [4, 9]: 820 nM |
| – | – | – | – | – | 33 | 14 | 61 | 25 | – | – | – | – | – | O=C(Nc1ccc2cc1CCc1cccc(c1)Nc1ncc(Cl)c(n1)N2)c1cccc(C(F)(F)F)c1 [Example B76, N-[6-Chloro-2,4,8,22-tetraazatetracyclo[14.3.1.1(3,7).1(9,13)]docosa-1(20), 3(22),4,6,9(21),10,12,16,18-nonaen-12-yl]-3-(trifluoromethyl)benzamide trifluoroacetate] | ALK % of inhibition at a concentration of 500 nM or 1 mM [4, 10]: 28% |
| – | – | – | – | – | 27 | 765 | > 10000 | 887 | – | – | – | – | – | O=C(Nc1ccc2cc1CCc1cncc(c1)Nc1ncc(Cl)c(n1)N2)N[C@H]1CCN(C(=O)c2cn[nH]c2)C1 [Example B267, N-[6-chloro-2,4,8,18,22-pentaazatetracyclo[14.3.1.1(3,7).1(9,13)]docosa-1(20),3(22),4,6,9(21),10,12,16,18-nonaen-12-yl]-N′-[(3S)-1-(1H-pyrazol-4-ylcarbonyl)pyrrolidin-3-yl]urea bis(trifluoroacetate)] | ALK % of inhibition at a concentration of 500 nM or 1 mM [4, 10]: 12% |
| – | – | – | – | – | – | – | – | – | 56 | 40 | 129 | 88 | > 10000 | Cn1c(NC(=O)c2cc3cc(c2)OCCSc2cccc(c2)Nc2nc(ncc2Cl)N3)nc2ccccc21 [Example D55, 6-Chloro-N-(1-methyl-1H-benzimidazol-2-yl)-17-oxa-14-thia-2,4,8,24-tetraazatetracyclo[16.3.1.1(3,7).1(9,13)]tetracosa-1(22),3(24),4,6,9(23),10,12,18,20-nonaene-20-carboxamide bis(trifluoroacetate)] | – |
| – | – | – | – | – | > 1000 | 800 | > 1000 | > 1000 | – | – | – | – | – | O=C(O)c1cc2cc(c1)Nc1nc(ncc1Cl)Nc1cccc(c1)CC2 [Example B6, 6-Chloro-2,4,8,22-tetraazatetracyclo[14.3.1.1(3,7).1(9,13)]docosa-1(20),3(22),4,6,9(21),10,12,16,18-nonaene-11-carboxylic acid trifluoroacetate] | IC50 [4, 9]: > 1000 nM |
| – | – | – | – | – | – | – | – | – | 3.1 | 0.4 | 17 | 6.2 | 280 | CC(C)(C)NC(=O)N1CCN(c2cc(-c3cc4cc(c3)Nc3ncc(Cl)c(n3)Nc3cccc(c3)OCC4)ccn2)CC1 [Example D41, N-(tert-Butyl)-4-{4-[6-chloro-14-oxa-2,4,8,23-tetraazatetracyclo[15.3.1.1(3,7).1(9,13)]tricosa-1(21),3(23),4,6,9(22),10,12,17,19-nonaen-19-yl]pyridin-2-yl}piperazine-1-carboxamide bis(trifluoroacetate)] | – |
| – | – | – | – | – | 15 | 90 | > 200 | > 200 | – | – | – | – | – | O=C(Nc1ccc2cc1CCc1cncc(c1)Nc1ncc(Cl)c(n1)N2)N1CCN(Cc2ccccc2)CC1 [Example B287, 4-Benzyl-N-[6-chloro-2,4,8,18,22-pentaazatetracyclo[14.3.1.1(3,7).1(9,13)]docosa-1(20),3(22),4,6,9(21),10,12,16,18-nonaen-12-yl]piperazine-1-carboxamidetris(trifluoroacetate)] | ALK % of inhibition at a concentration of 500 nM or 1 mM [4, 10]: 46% |
| – | – | – | – | – | 0.23 | 0.84 | 1.3 | 2.8 | – | – | – | – | – | NS(=O)(=O)N1CC[C@@H](NC(=O)Nc2ccc3cc2CCc2cccc(c2)Nc2ncc(Cl)c(n2)N3)C1 [Example B179, (3R)-3-[({[6-Chloro-2,4,8,22-tetraazatetracyclo[14.3.1.1(3,7).1(9,13)]docosa-1(20),3(22),4,6,9(21),10,12,16,18-nonaen-12-yl]amino}carbonyl)amino]pyrrolidine-1-sulfonamide trifluoroacetate] | ALK % of inhibition at a concentration of 500 nM or 1 mM [4, 10]: 43% |
| – | – | – | – | – | – | – | – | – | 183 | 47 | 489 | 137 | > 952 | CN1c2cccc(c2)OCCc2cccc(c2)Nc2ncc(Cl)c1n2 [Example D9, 6-Chloro-8-methyl-14-oxa-2,4,8,23-tetraazatetracyclo[15.3.1.1(3,7).1(9,13)]tricosa-1(21),3(23),4,6,9(22),10,12,17,19-nonaene trifluoroacetate] | – |
| – | – | – | – | – | – | – | – | – | 6.8 | 1.5 | 19 | 5.4 | 610 | O=C(Nc1cc2cc(c1)OCCSc1cccc(c1)Nc1nc(ncc1Cl)N2)c1cccs1 [Example D63, N-[6-Chloro-17-oxa-14-thia-2,4,8,24-tetraazatetracyclo[16.3.1.1(3,7).1(9,13)]tetracosa-1(22),3(24),4,6,9(23),10,12,18,20-nonaen-20-yl]thiophene-2-carboxamide trifluoroacetate] | – |
| – | – | – | – | – | – | – | – | – | 3.2 | 1.8 | 8.4 | 2.4 | > 1000 | O=C(NCc1ccco1)Nc1cc2cc(c1)OCCSc1cccc(c1)Nc1nc(ncc1Cl)N2 [Example D67, N-[6-Chloro-17-oxa-14-thia-2,4,8,24-tetraazatetracyclo[16.3.1.1(3,7).1(9,13)]tetracosa-1(22),3(24),4,6,9(23),10,12,18,20-nonaen-20-yl]-N′-(2-furylmethyl)urea trifluoroacetate] | – |
